The record followed here is patent US20230278984A1 (Global Blood Therapeutics, Inc., priority 2020, published 2023).

The target in this assay is T1, Human pyruvate kinase R (PKR) (Homo sapiens, UniProt P30613).
T1 construct: Human pyruvate kinase R (PKR), residues 14-574; 6x-His (N, cleaved yes); 8x-Arg (N, cleaved yes); SUMO (N, cleaved yes); host or cells: E. coli
Kind of assay: Biochemical assay for activation of pyruvate kinase R (Kinase-Glo luminescence measurement of ATP generation). To be noted: for AC50: PKR biochemical assay, 0.1 nM PKR, 0.3 mM ADP, 2 mM FBP, 0.1 mM PEP; for Emax: maximal activation level relative to the activation level achieved by the literature compound AG-348 @ 10 μM. An outline of the steps:
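Recombinant human PKR (residues 14-574), E. coli-expressed with His-Arg-SUMO tag removed, purified by Ni-NTA, anion exchange and size exclusion. Activation measured as ATP generation via Kinase-Glo luminescence.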
Background: Kinase-Glo measures the ATP left after a reaction by luminescence.

T1 sequence (P30613 14-574): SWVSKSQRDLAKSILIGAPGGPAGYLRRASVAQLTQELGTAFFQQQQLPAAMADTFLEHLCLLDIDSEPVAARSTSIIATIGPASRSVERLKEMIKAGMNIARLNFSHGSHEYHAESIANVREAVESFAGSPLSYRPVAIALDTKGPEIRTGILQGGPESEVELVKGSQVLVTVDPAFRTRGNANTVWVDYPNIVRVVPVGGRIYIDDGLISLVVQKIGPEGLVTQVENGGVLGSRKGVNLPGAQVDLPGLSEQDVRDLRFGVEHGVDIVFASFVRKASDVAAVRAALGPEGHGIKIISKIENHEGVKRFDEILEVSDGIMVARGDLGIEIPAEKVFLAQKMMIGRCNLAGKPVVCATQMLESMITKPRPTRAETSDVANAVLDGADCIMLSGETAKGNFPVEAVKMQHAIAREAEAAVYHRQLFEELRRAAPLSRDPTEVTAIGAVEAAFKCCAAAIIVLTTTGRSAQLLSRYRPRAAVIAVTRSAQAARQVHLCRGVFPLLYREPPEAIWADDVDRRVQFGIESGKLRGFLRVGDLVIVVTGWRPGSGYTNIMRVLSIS

`COCCc1nc(CNC(=O)NCc2ncnn2-c2ccc3cccnc3c2)n(-c2ccc(Cl)c(F)c2)n1` [Compound 97, 1-{[1-(4-chloro-3-fluorophenyl)-3-(2-methoxyethyl)-1H-1,2,4-triazol-5-yl]methyl}-3-{[1-(quinolin-7-yl)-1H-1,2,4-triazol-5-yl]methyl}urea] had an AC50 of 0.51 µM and an Emax of 92%.

For the compound `O=C(NCc1ncnn1-c1ccc2cccnc2c1)NCc1n[nH]c(=O)n1-c1ccc(Cl)c(F)c1` [Compound 98, 3-{[4-(4-chloro-3-fluorophenyl)-5-oxo-4,5-dihydro-1H-1,2,4-triazol-3-yl]methyl}-1-{[1-(quinolin-7-yl)-1H-1,2,4-triazol-5-yl]methyl}urea], the AC50 is 0.071 µM and the Emax is 60%.

For `CNCc1cc(-n2nc(C)nc2CNC(=O)NCc2nc(C)nn2-c2ccc(Cl)c(F)c2)ccc1Cl` [Compound 99, 1-[(1-{4-chloro-3-[(methylamino)methyl]phenyl}-3-methyl-1H-1,2,4-triazol-5-yl)methyl]-3-{[1-(4-chloro-3-fluorophenyl)-3-methyl-1H-1,2,4-triazol-5-yl]methyl}urea], the activity was half-maximal at 0.069 µM (AC50) and the Emax came to 69%.

Take `COCCc1nc(CNC(=O)NCc2nc(C)nn2-c2ccc3cccnc3c2)n(-c2ccc(Cl)c(F)c2)n1` [Compound 100]: half-maximal activity (AC50) was put at 0.51 µM and the Emax turned out to be 106%.

In turn, `Cc1nc(CNC(=O)NCc2ncnn2-c2cc(F)c3nccnc3c2)n(-c2ccc(Cl)c(F)c2)n1` [Compound 101, 1-{[1-(4-chloro-3-fluorophenyl)-3-methyl-1H-1,2,4-triazol-5-yl]methyl}-3-{[1-(8-fluoroquinoxalin-6-yl)-1H-1,2,4-triazol-5-yl]methyl}urea] showed an AC50 of 0.093 µM and an Emax of 77%.

`Cc1nc(CNC(=O)NCc2ncnn2-c2cc(F)c3ncccc3c2)n(-c2ccc(Cl)c(F)c2)n1` [Compound 102] showed a half-maximal activity concentration (AC50) of 0.035 µM and an Emax of 71%.

`Cc1nc(CNC(=O)NCc2ncnn2-c2cc(C)c3nccnc3c2)n(-c2ccc(Cl)c(F)c2)n1` [Compound 103, 1-{[1-(4-chloro-3-fluorophenyl)-3-methyl-1H-1,2,4-triazol-5-yl]methyl}-3-{[1-(8-methylquinoxalin-6-yl)-1H-1,2,4-triazol-5-yl]methyl}urea] registered a half-maximal activity concentration (AC50) of 0.11 µM and an Emax of 73%.

Regarding `O=C(NCc1ncnn1-c1ccc2cccnc2c1)NCc1nc(CF)nn1-c1ccc(Cl)c(F)c1` [Compound 104, 1-{[1-(4-chloro-3-fluorophenyl)-3-(fluoromethyl)-1H-1,2,4-triazol-5-yl]methyl}-3-{[1-(quinolin-7-yl)-1H-1,2,4-triazol-5-yl]methyl}urea], half-maximal activity (AC50) was put at 0.036 µM and the Emax was determined as 80%.

Take `Cc1nc(CNC(=O)NCc2ncnn2-c2cc(C)c3cncnc3c2)n(-c2ccc(Cl)c(F)c2)n1` [Compound 105, 1-{[1-(4-chloro-3-fluorophenyl)-3-methyl-1H-1,2,4-triazol-5-yl]methyl}-3-{[1-(5-methylquinazolin-7-yl)-1H-1,2,4-triazol-5-yl]methyl}urea]: the AC50 amounted to 0.88 µM and the Emax was 59%.

In turn, `Cc1nc(CNC(=O)NCC2=NC3(CC3)C(=O)N2Cc2ccc(F)cc2)n(-c2ccc(Cl)c(F)c2)n1` [Compound 106, 1-{[1-(4-chloro-3-fluorophenyl)-3-methyl-1H-1,2,4-triazol-5-yl]methyl}-3-({6-[(4-fluorophenyl)methyl]-7-oxo-4,6-diazaspiro[2.4]hept-4-en-5-yl}methyl)urea] came in with an AC50 of 0.071 µM and an Emax of 125%.

Regarding `O=C(NCc1nc(CF)nn1-c1ccc(Cl)c(F)c1)NCc1n[nH]c(=O)n1-c1ccc(Cl)c(F)c1` [Compound 107, 1-{[1-(4-chloro-3-fluorophenyl)-3-(fluoromethyl)-1H-1,2,4-triazol-5-yl]methyl}-3-{[4-(4-chloro-3-fluorophenyl)-5-oxo-4,5-dihydro-1H-1,2,4-triazol-3-yl]methyl}urea], the AC50 was 0.03 µM and the Emax worked out at 107%.

`Cc1nc(CNC(=O)NCc2ncnn2-c2cc(F)c3cncnc3c2)n(-c2ccc(Cl)c(F)c2)n1` [Compound 108, 1-{[1-(4-chloro-3-fluorophenyl)-3-methyl-1H-1,2,4-triazol-5-yl]methyl}-3-{[1-(5-fluoroquinazolin-7-yl)-1H-1,2,4-triazol-5-yl]methyl}urea] showed an AC50 of 0.9 µM and an Emax of 74%.

For `O=C(NCC1=NC2(CC2)C(=O)N1Cc1ccc(F)cc1)NCc1ncnn1-c1ccc(Cl)c(F)c1` [Compound 109, 1-{[1-(4-chloro-3-fluorophenyl)-1H-1,2,4-triazol-5-yl]methyl}-3-({6-[(4-fluorophenyl)methyl]-7-oxo-4,6-diazaspiro[2.4]hept-4-en-5-yl}methyl)urea], half-maximal activity (AC50) was put at 0.11 µM and the Emax was determined as 96%.

The compound `O=C(NCC1=NC2(CC2)C(=O)N1Cc1ccc(F)cc1)NCc1ncnn1-c1ccc2cccnc2c1` [Compound 110, 3-({6-[(4-fluorophenyl)methyl]-7-oxo-4,6-diazaspiro[2.4]hept-4-en-5-yl}methyl)-1-{[1-(quinolin-7-yl)-1H-1,2,4-triazol-5-yl]methyl}urea] gave an AC50 of 0.061 µM and an Emax of 83%.

With `Cc1nc(CNC(=O)NCC2=NC3(CC3)C(=O)N2c2ccc3cccnc3c2)n(-c2ccc(Cl)c(F)c2)n1` [Compound 111, 1-{[1-(4-chloro-3-fluorophenyl)-3-methyl-1H-1,2,4-triazol-5-yl]methyl}-3-{[7-oxo-6-(quinolin-7-yl)-4,6-diazaspiro[2.4]hept-4-en-5-yl]methyl}urea], half-maximal activity (AC50) was put at 0.14 µM and the Emax was 105%.

With `Cc1nc(CNC(=O)NCC2=NC3(CCC3)C(=O)N2c2ccc3cccnc3c2)n(-c2ccc(Cl)c(F)c2)n1` [Compound 112, 1-{[1-(4-chloro-3-fluorophenyl)-3-methyl-1H-1,2,4-triazol-5-yl]methyl}-3-{[8-oxo-7-(quinolin-7-yl)-5,7-diazaspiro[3.4]oct-5-en-6-yl]methyl}urea], half-maximal activity (AC50) was put at 0.802 µM and the Emax was found to be 126%.

Turning to `Cc1nc(CNC(=O)NCc2ncnn2-c2cc(C)c3cccnc3c2)n(-c2ccc(Cl)c(F)c2)n1` [Compound 113, 1-{[1-(4-chloro-3-fluorophenyl)-3-methyl-1H-1,2,4-triazol-5-yl]methyl}-3-{[1-(5-methylquinolin-7-yl)-1H-1,2,4-triazol-5-yl]methyl}urea], half-maximal activity (AC50) was put at 0.04 µM and the Emax was 116%.

Take `Cc1ccc(-n2nnnc2CNC(=O)NCc2nnnn2-c2ccc(C)cc2F)c(F)c1` [Compound 114, 1,3-bis({[1-(2-fluoro-4-methylphenyl)-1H-1,2,3,4-tetrazol-5-yl]methyl})urea]: half-maximal activity (AC50) was put at 0.67 µM and the Emax is 61%.

In the case of `O=C(NCc1nnnn1-c1ccc(C(F)(F)F)cc1)NCc1nnnn1-c1ccc(C(F)(F)F)cc1` [Compound 115, 1,3-bis({1-[4-(trifluoromethyl)phenyl]-1H-1,2,3,4-tetrazol-5-yl}methyl)urea], the AC50 amounted to 1.7 µM and the Emax came out at 148%.

`O=C(NCc1ncnn1-c1ccc(Cl)nc1)NCc1ncnn1-c1ccc(Cl)nc1` [Compound 116, 1,3-bis({[1-(6-chloropyridin-3-yl)-1H-1,2,4-triazol-5-yl]methyl})urea] returned an AC50 of 0.089 µM and an Emax of 39%.

As for `COc1ccc(-n2ncnc2CNC(=O)NCc2ncnn2-c2ccc(OC)nc2)cn1` [Compound 117, 1,3-bis({[1-(6-methoxypyridin-3-yl)-1H-1,2,4-triazol-5-yl]methyl})urea], the AC50 was 2.6 µM and the Emax came out at 53%.

For the compound `COc1ccc(-n2ncnc2CNC(=O)NCc2ncnn2-c2ccc(Cl)c(F)c2)cn1` [Compound 118, 3-{[1-(4-chloro-3-fluorophenyl)-1H-1,2,4-triazol-5-yl]methyl}-1-{[1-(6-methoxypyridin-3-yl)-1H-1,2,4-triazol-5-yl]methyl}urea], half-maximal activity (AC50) was put at 0.047 µM and the Emax came out at 36%.

`O=C(NCc1ncnn1-c1ccc(O)nc1)NCc1ncnn1-c1ccc(Cl)c(F)c1` [Compound 119, 3-{[1-(4-chloro-3-fluorophenyl)-1H-1,2,4-triazol-5-yl]methyl}-1-{[1-(6-hydroxypyridin-3-yl)-1H-1,2,4-triazol-5-yl]methyl}urea] had an AC50 of 1.1 µM and an Emax of 31%.

Compound `CCN(Cc1ncnn1-c1ccc(Cl)c(F)c1)C(=O)NCc1ncnn1-c1ccc(OC)nc1` [Compound 120, 3-{[1-(4-chloro-3-fluorophenyl)-1H-1,2,4-triazol-5-yl]methyl}-3-ethyl-1-{[1-(6-methoxypyridin-3-yl)-1H-1,2,4-triazol-5-yl]methyl}urea] came in with an AC50 of 0.22 µM and an Emax of 51%.

Consider `CCN(Cc1ncnn1-c1ccc(Cl)c(F)c1)C(=O)NCc1ncnn1-c1ccc(O)nc1` [Compound 121, 3-{[1-(4-chloro-3-fluorophenyl)-1H-1,2,4-triazol-5-yl]methyl}-3-ethyl-1-{[1-(6-hydroxypyridin-3-yl)-1H-1,2,4-triazol-5-yl]methyl}urea], for which the AC50 stood at 7.8 µM and the Emax is 47%.

On to `CCN(Cc1ncnn1-c1ccc(OC)nc1)C(=O)NCc1ncnn1-c1ccc(Cl)c(F)c1` [Compound 122, 3-{[1-(4-chloro-3-fluorophenyl)-1H-1,2,4-triazol-5-yl]methyl}-1-ethyl-1-{[1-(6-methoxypyridin-3-yl)-1H-1,2,4-triazol-5-yl]methyl}urea], for which the activity was half-maximal at 0.19 µM (AC50) and the Emax turned out to be 42%.

A word on the AC50: it is the midpoint of the concentration-response curve, whichever way the signal moves. Low readings indicate activity at low concentration, high ones activity only at high concentration. Usually Emax stands for the greatest response seen or fitted, relative to the assay's reference.
